The term inhibition denotes the drop in the measured response relative to a control, in per cent.

SMILES strings stand for the structures.

The target of the assay is T1, rArtinM (recombinant ArtinM) (Artocarpus heterophyllus, UniProt Q2VPW4).
T1 construct: recombinant, expressed in E. coli BL21; monomer
T1 sequence (Q2VPW4 2-150): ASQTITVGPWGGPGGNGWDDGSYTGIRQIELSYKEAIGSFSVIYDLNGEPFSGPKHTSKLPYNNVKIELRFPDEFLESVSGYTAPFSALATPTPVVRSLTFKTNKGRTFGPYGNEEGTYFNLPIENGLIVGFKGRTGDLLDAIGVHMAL
Put plainly: MTT assay, inhibition of lectin-induced mitochondrial activity of murine spleen cells. The format is cell-based. Conditions: read-out: % inhibition at 50 mM. On the technique in general: Tetrazolium assays rely on reduction of a dye to a coloured formazan, in cell work by metabolically active cells.

For `OC[C@H]1OC(O)[C@@H](O)[C@@H](O)[C@@H]1O` (stereo partly drawn) [D-mannose], the inhibition at 50000 µM is 80%.

These data come from publication PMC4148593, “Activation of spleen cells by ArtinM may account for its immunomodulatory properties” (Cell and Tissue Research, 2014).
